Results from PMC5956543, “Antimicrobial and antioxidant activities of triterpenoid and phenolic derivatives from two Cameroonian Melastomataceae plants: Dissotis senegambiensis and Amphiblemma monticola” (BMC Complementary and Alternative Medicine, 2018).
≈ marks a conversion by molar mass, not a printed value.

Key:
[1] = tested on: S. aureus ATCC25923; experiment: Broth microdilution antimicrobial assay (MIC/MMC); format: cell-based, Staphylococcus aureus; conditions: for MIC / MBC: Staphylococcus aureus, 24 h; for MIC: 37 °C; for MBC: no growth after sub-culturing
Experimental: (§1) The microorganisms used in this study include four bacterial (Staphylococcus aureus ATCC25923, methicillin sensitive S. aureus MSSA1, methicillin resistant S. aureus MRSA3 and methicillin resistant S. aureus MRSA4) and three yeast strains (Candida albicans ATCC10231, Candida tropicalis PK233 and Cryptococcus neoformans H99). These microorganisms were taken from our laboratory collection. The fungal and bacterial strains were grown at 37 °C and maintained on Sabouraud Dextrose Agar (SDA, Conda, Madrid, Spain) and nutrient agar (NA, Conda) slants respectively.
(§2) The inocula of bacteria and yeasts were prepared from overnight cultures as previously described. Absorbance was read spectrophotometrically at 530 nm and 600 nm for yeasts and bacteria respectively. The final concentrations of microbial suspensions were 2.5 × 10^5 cells/mL for yeasts and 10^6 CFU/mL for bacteria.
(§3) The antimicrobial activity was evaluated by determining the minimum inhibitory concentrations (MICs). MICs of extracts and compounds were determined by broth micro dilution. Each test sample was dissolved in 10% v/v aqueous dimethylsulfoxide (DMSO) to give a stock solution. This was serially diluted two-fold in Mueller-Hinton Broth (MHB) for bacteria and Sabouraud Dextrose Broth (SDB) for fungi to obtain a concentration range of 4096 to 0.25 μg/mL. Then, 100 μL of each sample concentration was added to respective wells (96-well micro plate) containing 90 μL of SDB/ MHB and 10 μL of inoculum to give final concentration ranges of 2048 to 4 μg/mL (for extracts) and 256 to 0.125 μg/mL (for compounds). Dilutions of nystatin (Sigma-Aldrich, Steinheim, Germany) and ciprofloxacin (Sigma-Aldrich, Steinheim, Germany) were used as positive controls for yeasts and bacteria respectively. Broth with 10 μL of DMSO was used as negative control. The cultured micro plates were covered; then, the contents of each well were mixed thoroughly using a plate shaker (Flow Laboratory, Germany) and incubated at 37 °C for 24 h (bacteria) and 48 h (yeasts) under shaking. After the incubation period, MICs were assessed visually and were taken as the lowest sample concentration at which there was no growth or virtually no growth. The lowest concentration that yielded no growth after the sub-culturing was considered as the minimum microbicidal concentrations (MMCs). All the tests were performed in triplicate.

[2] = tested on: S. aureus MRSA3; experiment: Broth microdilution antimicrobial assay (MIC/MMC); format: cell-based, Staphylococcus aureus; conditions: S. aureus MRSA3; for MBC / MIC: Staphylococcus aureus, 24 h; for MBC: no growth after sub-culturing; for MIC: 37 °C
Experimental: as §1, §2, §3

[3] = tested on: S. aureus MRSA4; experiment: Broth microdilution antimicrobial assay (MIC/MMC); format: cell-based, Staphylococcus aureus; conditions: S. aureus MRSA4; for MBC / MIC: Staphylococcus aureus, 24 h; for MBC: no growth after sub-culturing; for MIC: 37 °C
Experimental: as §1, §2, §3

[4] = tested on: S. aureus MSSA1; experiment: Broth microdilution antimicrobial assay (MIC/MMC); format: cell-based, Staphylococcus aureus; conditions: for MIC / MBC: Staphylococcus aureus, 24 h; for MIC: 37 °C; for MBC: no growth after sub-culturing
Experimental: as §1, §2, §3

[5] = tested on: C. albicans ATCC10231; experiment: Broth microdilution antimicrobial assay (MIC/MMC); format: cell-based, Candida albicans; conditions: for MIC: Candida albicans, 37 °C, 48 h, read-out: MIC; for MMC: no growth after sub-culturing
Experimental: as §1, §2, §3

[6] = tested on: C. tropicalis PK233; experiment: Broth microdilution antimicrobial assay (MIC/MMC); format: cell-based, Candida tropicalis; conditions: for MIC / MFC: Candida tropicalis, 48 h; for MIC: 37 °C, read-out: MIC; for MFC: no growth after sub-culturing
Experimental: as §1, §2, §3

[7] = tested on: C. neoformans H99; experiment: Broth microdilution antimicrobial assay (MIC/MMC); format: cell-based, Cryptococcus neoformans; conditions: for MIC / MFC: Cryptococcus neoformans, 48 h; for MIC: 37 °C, read-out: MIC; for MFC: no growth after sub-culturing
Experimental: as §1, §2, §3

[8] = Ferric reducing antioxidant power (FRAP) assay; conditions: Perl's Prussian blue at 700 nm; Fig. 2; BHT positive control
Experimental: The FRAP was determined by the Fe^3+-Fe^2+ transformation in the presence of extracts and compounds as previously described. The Fe^2+ was monitored by measuring the formation of Perl’s Prussian blue at 700 nm. Butylated hydroxytoluene (BHT) was used as a positive control. All the tests were performed in triplicate.

[9] = DPPH free radical scavenging assay; conditions: Fig. 3; vitamin C standard
Experimental: The free radical scavenging activity of extracts and compounds was evaluated according to described methods. The EC50 (μg/ml), which is the amount of sample necessary to inhibit by 50% the absorbance of free radical DPPH was calculated. Vitamin C was used as a standard control. All the analyses were carried out in triplicate.

[10] = tested on: bacterial and fungal strains; experiment: Broth microdilution MIC, range over all tested strains; format: cell-based; conditions: for MIC: range over all bacterial and fungal strains, read-out: MIC
Experimental: as §1, §2, §3

SMILES | MIC [1] | MBC [1] | MBC [2] | MIC [2] | MBC [3] | MIC [3] | MIC [4] | MBC [4] | MIC [5] | MIC [6] | MFC [6] | MIC [7] | MFC [7] | reducing power (FRAP, in words) [8] | DPPH radical-scavenging activity (in words) [9] | MMC [5] | MIC [10] | further results
C=C(C)[C@@H]1CC[C@]2(C)CC[C@]3(C)[C@H](CC[C@@H]4[C@@]5(C)CC[C@H](O)C(C)(C)[C@@H]5CC[C@]43C)[C@@H]12 [Compound 9, lupeol] | 256 µg/mL (≈ 600 µM) | > 256 µg/mL | > 256 µg/mL | > 256 µg/mL | > 256 µg/mL | > 256 µg/mL | 256 µg/mL (≈ 600 µM) | > 256 µg/mL | > 256 µg/mL | 256 µg/mL (≈ 600 µM) | > 256 µg/mL | 256 µg/mL (≈ 600 µM) | > 256 µg/mL | not active | not active |  |  | 
O=C(C=Cc1ccc(O)cc1)OCC1OC(Oc2c(-c3ccc(O)cc3)oc3cc(O)cc(O)c3c2=O)C(O)C(O)C1O (stereo not drawn) [Compound 6, trans-tiliroside] | 32 µg/mL (≈ 53.8 µM) | 64 µg/mL (≈ 108 µM) | 128 µg/mL (≈ 215 µM) | 64 µg/mL (≈ 108 µM) | 128 µg/mL (≈ 215 µM) | 128 µg/mL (≈ 215 µM) | 64 µg/mL (≈ 108 µM) | 64 µg/mL (≈ 108 µM) | 64 µg/mL (≈ 108 µM) | 64 µg/mL (≈ 108 µM) | 64 µg/mL (≈ 108 µM) | 64 µg/mL (≈ 108 µM) | 128 µg/mL (≈ 215 µM) |  |  | 64 µg/mL | 32 to 128 µg/mL (≈ 53.8 to 215 µM) | MMC/MIC [1]: 2; MMC/MIC [2]: 2; MMC/MIC [3]: 1; MMC/MIC [4]: 1; MMC/MIC [5]: 1; MMC/MIC [6]: 1; MMC/MIC [7]: 2
CC[C@H](CC[C@@H](C)[C@H]1CCC2C3CC=C4C[C@@H](O[C@@H]5O[C@H](CO)[C@@H](O)[C@H](O)[C@H]5O)CC[C@]4(C)C3CC[C@@]21C)C(C)C (stereo partly drawn) [Compound 4, sitosterol-3-O-β-D-glucopyranoside] | > 256 µg/mL | > 256 µg/mL | > 256 µg/mL | > 256 µg/mL | > 256 µg/mL | > 256 µg/mL | > 256 µg/mL | > 256 µg/mL | 256 µg/mL (≈ 444 µM) | 256 µg/mL (≈ 444 µM) | > 256 µg/mL | 128 µg/mL (≈ 222 µM) | > 256 µg/mL | not active | not active | > 256 µg/mL |  | 
C[C@H]1[C@H](C)CC[C@]2(C(=O)O)CC[C@]3(C)C(=CC[C@@H]4[C@@]5(C)CC[C@H](O)C(C)(C)[C@@H]5CC[C@]43C)[C@H]12 [Compound 3, ursolic acid] | 256 µg/mL (≈ 561 µM) | > 256 µg/mL | > 256 µg/mL | 128 µg/mL (≈ 280 µM) | > 256 µg/mL | 128 µg/mL (≈ 280 µM) | 128 µg/mL (≈ 280 µM) | > 256 µg/mL | 256 µg/mL (≈ 561 µM) | 256 µg/mL (≈ 561 µM) | > 256 µg/mL | 128 µg/mL (≈ 280 µM) | > 256 µg/mL |  |  | > 256 µg/mL | 128 to 256 µg/mL (≈ 280 to 561 µM) | antimicrobial activity (in words) ([10]; all the tested bacterial and fungal species): active against all the tested bacterial and fungal species
CC1(C)CC[C@]2(C(=O)O)CC[C@]3(C)C(=CC[C@@H]4[C@@]5(C)CC[C@H](O)C(C)(C)[C@@H]5CC[C@]43C)[C@@H]2C1 [Compound 13, oleanolic acid] |  |  |  |  |  |  |  |  |  |  |  |  |  | not active | not active |  |  | 
